Measurements taken from US20120265121A1, “PHTHALOCYANINE-BASED ANTIFUNGAL AGENTS” (CASE WESTERN RESERVE UNIVERSITY, priority 2011, published 2012).

Tests used:
[1] = tested on: C. albicans (strain SC-5134); experiment: FUN-1 fluorescence metabolic activity assay (confocal); format: cell-based, Candida albicans; conditions: 1.0 μM Pc 4, 2.0 J/cm^2, vs cells exposed to Pc 4 but not irradiated
Method: Pc 4-Photodynamic Treatment Conditions: The phthalocyanine photosensitizer Pc 4 was kindly provided by Dr. Malcolm E. Kenney (Department of Chemistry, Case Western Reserve University, Cleveland, Ohio, USA). Stock solutions (0.5 mM) of Pc 4 were prepared in N′,N′-dimethylformamide (DMF, ThermoFisher, Waltham, Mass., USA) and stored at 4° C. in the dark. C. albicans cultures were incubated with Pc 4 concentrations ranging from 0.1 to 1.0 μM in 1× PBS containing 10% FBS for at least 1 hr at 37° C. in the dark and subsequently irradiated with red light using a light-emitting diode array (EFOS, Mississauga, Ontario, Canada) at a fluence ranging from 1.0 to 2.0 J/cm^2 (1.0 mW/cm^2, λmax ˜670-675 nm) at room temperature. […] The absorbance of the resulting orange solution was measured using a spectrophotometer (Spectronic Genesys 5, Analytical Instrument, Golden Valley, Minn., USA) at 492 nm. […] FUN-1 fluorescence was excited using solid state diode lasers (488 nm) and collected with a 580-650 nm band pass emission filter.

[2] = tested on: C. albicans (strain SC-5134); experiment: XTT reduction metabolic activity assay; format: cell-based, Candida albicans
Method: Metabolic Activity Assay: XTT reduction assays were performed according to the procedure of Chandra et al. Chandra et al., Nature Protocol. 3(12): 1909-2 (2008). Briefly, in the dark, aliquots of 2 ml of cells were treated with 200 nM of Pc 4 in 10% FBS standard growth medium in a 37° C. shaker. The next day, the cells were photoirradiated with red light using a light-emitting diode array (EFOS, Mississauga, Ontario, Canada) at a fluence of 200, 500, 1000 and 2000 mil/cm^2 (1 milliwat/cm^2, ymax ˜670-675 nm) at room temperature. For negative controls, a 2 ml aliquot was not photoirradiated and a 2 ml aliquot simply was loaded overnight with an appropriate amount of N′,N′-dimethylformamide and then photoirridated with the highest fluence the next day. For positive control, either cells were treated with 30% ethanol or 1 uM of Thapsigargin. […] One ml of each treatment condition was used to incubate with XTT (final concentration 1 mg/ml) and menadione (final concentration 1 mM) for 5 hours in the dark and then transferred to 1 ml plastic cuvette for absorbance measurement. Colorimetric changes, which reflect the viability of the cells given different treatment conditions, were measured at 492-nm using a spectrophotometer (Spectronic Genesys™ 5, Analytical Instrument, Golden Valley, Minn., USA). […]

[3] = tested on: T. rubrum; experiment: XTT reduction assay after Pc 4-PDT; format: cell-based, Trichophyton rubrum
Method: Terbinafine sensitive (23013) and resistant (MRL666) strains of T. rubrum were grown onto Sabouraud potato agar plate for at least 24 hours at 28° C. Microconidia were separated from most of the hyphae form before treating with Pc 4-PDT.

## CN(C)CCC[Si](C)(C)O[Si]1(O)n2c3c4ccccc4c2N=C2N=C(N=c4c5ccccc5c(n41)=NC1=NC(=N3)c3ccccc31)c1ccccc12 (centres unmarked) [Pc 4, HOSiPcOSi(CH3)2(CH2)3N(CH3)2]
[1]
  FUN-1 fluorescence: much reduced FUN-1 fluorescence
[2]; 200 nM Pc 4 + 0.2-2.0 J/cm^2
  metabolic activity (XTT, percent viability), FIG. 1: impairs fungal metabolic activity
[2]; highest Pc 4-PDT dose (1.0 μM, 2.0 J/cm^2), within an hour following photoirradiation
  reduction of metabolic activity (XTT): ~50%
[3]; terbinafine resistant strain MRL666
  metabolic activity (XTT): attenuates following Pc 4-PDT
[3]; terbinafine sensitive strain 23013
  metabolic activity (XTT): attenuates following Pc 4-PDT
